According to patent EP0490410B1, “TXA2 Receptor and gene encoding the same” (SHIONOGI SEIYAKU KABUSHIKI KAISHA, priority 1990, dated 1992):

Key:
[1] = test system: human TXA2 receptor encoded by HPL (SEQ ID NO: 1), expressed in Xenopus oocytes; assay: Electrophysiological response (two-micropipette voltage clamp) of Xenopus oocytes injected with in vitro transcribed mRNA of HPL; format: cell-based; conditions: for response evoked (inward current): ligand added to the bath at 1 µM, oocytes 48 hours after mRNA injection
Method: The TXA2 receptor stimulation results in PI turnover and Ca^2+ mobilization. The present inventors, therefore, expressed the clone in Xenopus oocyte where agonist stimulation linked to PI turnover opens endogenous Ca^2+-dependent Cl^- channel. […] The mRNA synthesized in vitro from the 2.0 kb BamHI subclone of HPL was injected into Xenopus oocytes and electrophysiological responses were measured after 48 hours. A TXA2 agonist, STA2, and other PGs dissolved in ethanol at 100 µM were added to the bath at 1 µM concentration, and responses of oocytes were recorded by the two-micropipette voltage clamp method as described in Masu, Y. et al., Nature 329, 836-838 (1987).

[2] = target: T1, human TXA2 receptor encoded by placenta cDNA clone HPL (SEQ ID NO: 1), expressed in COS-7 cells (Homo sapiens, UniProt P21731); assay: Competition for [3H]S-145 binding to membranes of transfected COS-7 cells; conditions: 1.25 nM [^3H]S-145 and various concentrations of ligands
T1 construct: expressed in transfected cells; host or cells: COS-7 cells (CDM8 vector), membranes
T1 sequence (P21731 1-343): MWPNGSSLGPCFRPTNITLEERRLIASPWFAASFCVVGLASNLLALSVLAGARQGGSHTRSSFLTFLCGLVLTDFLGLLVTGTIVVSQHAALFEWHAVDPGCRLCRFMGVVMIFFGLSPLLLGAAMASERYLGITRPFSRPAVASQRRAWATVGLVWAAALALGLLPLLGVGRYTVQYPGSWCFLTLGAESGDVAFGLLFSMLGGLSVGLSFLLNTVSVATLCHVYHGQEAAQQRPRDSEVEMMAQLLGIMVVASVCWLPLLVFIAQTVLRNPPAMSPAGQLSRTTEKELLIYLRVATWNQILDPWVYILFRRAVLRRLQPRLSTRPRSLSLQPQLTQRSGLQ
Method: To establish that HPL encodes the TXA2 receptor, the present inventors subcloned a 2.0 kb fragment of HPL into an eukaryotic expression vector, CDM8 (Seed, B., Nature 329, 840-842 (1987)), and transfected the plasmid into COS-7 cells. […] Specificity of this binding was analysed with several TXA2 analogues as well as various prostanoids.
HPL was digested with BamHI to remove most of the 5'-untranslated region, and its 2.0 kb fragment was inserted between the HindIII-XbaI site of eukaryotic expression vector CDM8 (Seed, B., Nature […], 840-842 (1987)). A modified DEAE-dextran method (Ausbel, F. M. et al, Current Protocols in Molecular Biology. 9.2.5 (Wiley, New York, 1989)) was used for the transfection of COS-7 cells. At 60 h after the transfection, cells were collected and membranes were prepared by homogenizing the cells according to the method of Ausbel, F. M. et al., as described above in the presence of 1 mM benzamidine and 0.3 mM PMSF.

| Molecule | response evoked (inward current) [1] | competition for the [^3H]S-145 binding [2] | concentration as low as which the response was seen ([1]; oocytes injected with mRNA of HPL) [nM] |
| --- | --- | --- | --- |
| CCCCC[C@H](O)/C=C/[C@H]1[C@H](O)CC(=O)[C@@H]1C/C=C\CCCC(=O)O [E2] | did not evoke response |  |  |
| CCCCCC(O)C=CC1C(O)CC2OC(=CCCCC(=O)O)CC21 (stereo not drawn) [I2] | did not evoke response |  |  |
| CC1(C)[C@H]2C[C@H](NC(=O)[C@H](O)C3CCCC3)[C@@H](C/C=C\CCCC(=O)O)[C@@H]1C2 [ONO-3708] |  | competed for the [^3H]S-145 binding |  |
| CCCCC[C@H](O)/C=C/[C@H]1[C@H](O)CC(=O)[C@@H]1CCCCCCC(=O)O [PGE1] | did not evoke response |  |  |
| CCCCC[C@H](O)/C=C/[C@@H]1[C@@H](C/C=C\CCCC(=O)O)[C@@H](O)C[C@H]1O [PGF2 α] | did not evoke response |  |  |
| O=C(O)CCCC=CCC1C2CCC(C2)C1NS(=O)(=O)c1ccccc1 (stereo not drawn) [S-145] |  | competed for the [^3H]S-145 binding |  |
| CCCCCC(O)C=CC1CC2CC(S2)C1CC=CCCCC(=O)O (stereo not drawn) [STA2] | evoked a fast inward current of a few hundred nA followed by a slow phase of current of low amplitude | competed for the [^3H]S-145 binding | 1 |
| CCCCC[C@H](O)/C=C/[C@H]1OC(O)C[C@H](O)[C@@H]1C/C=C\CCCC(=O)O (stereo partly drawn) [TXB2] | did not evoke response | at least two orders of magnitude less active in the competition |  |
| PGD2 | did not evoke response |  |  |
